ChEMBL document CHEMBL1122102, “Hydrogen bonding and anesthetic potency” (J Med Chem, 1982)

How the values were obtained:
[1] = Partition coefficient was determined in oil/gas system and value was reported; assay type: ADME
Canis familiaris = assay: Evaluated in vitro for anesthetic activity in dog and minimum alveolar concentration (MAC) was determined; assay type: functional, Canis lupus familiaris; design: unit not given here
Homo sapiens = assay: Evaluated in vitro for anesthetic activity in man and minimum alveolar concentration (MAC) was determined; assay type: functional; design: unit not given here
Mus musculus = assay: Evaluated in vitro for anesthetic activity in mice and ED50 value was reported; assay type: functional

Row | Partition coefficient [1] | SMILES | MAC (Canis familiaris) | MAC (Homo sapiens) | ED50 (Mus musculus)
1 | – | ClC(Cl)Cl [CHLOROFORM] | 0.77 | 0.5 | 0.84
2 | 220 | FC(F)(F)C(Cl)Br (stereo not drawn) [HALOTHANE] | 0.87 | 0.74 | 0.77
3 | 97 | FC(F)OC(Cl)C(F)(F)F (stereo not drawn) [ISOFLURANE] | 1.28 | 1.15 | 0.57
4 | 950 | COC(F)(F)C(Cl)Cl [METHOXYFLURANE] | 0.24 | 0.16 | 0.22

Row | SMILES | Partition coefficient [1] | MAC (Canis familiaris) | MAC (Homo sapiens) | ED50 (Mus musculus)
5 | FC(F)OC(F)(F)C(F)Cl (stereo not drawn) | 98 | 2.06 | 1.68 | –
